Assay results from ChEMBL document CHEMBL1141992, “Synthesis and radiopharmacological evaluation of 2'-(4-fluorophenyl)-21-[18F]fluoro-20-oxo-11beta,17alpha-dihydroxy-pregn-4-eno[3,2-c]pyrazole as potential glucocorticoid receptor ligand for positron emission tomography (PET)” (Bioorg Med Chem Lett, 2005).

Columns and labels:
[1] = Radioactivity expressed as percent injected dose per gram after single intravenous injection of 50 uCi after 60 min in rat kidney;n =4; type: ADME, tissue-based; conditions: in vivo, 1 h
[2] = Activity distribution of compound in blocked (hydrocortisone) rat brain pituitary after single iv injection of 0.9 mCi at 60 min after injection by ex vivo autoradiography; type: ADME, organism-based; conditions: 1 h
[3] = Radioactivity expressed as percent injected dose per gram after single intravenous injection of 50 uCi after 5 min in rat fat;n =4; type: ADME; conditions: in vivo
[4] = Radioactivity expressed as percent injected dose per gram after single intravenous injection of 50 uCi after 5 min in rat lung;n =4; type: ADME; conditions: in vivo
[5] = Radioactivity expressed as percent injected dose per gram after single intravenous injection of 50 uCi after 60 min in rat fat;n =4; type: ADME; conditions: in vivo, 1 h
[6] = Radioactivity expressed as percent injected dose per gram after single intravenous injection of 50 uCi after 5 min in rat blood;n =4; type: ADME; conditions: in vivo
[7] = Radioactivity expressed as percent injected dose per gram after single intravenous injection of 50 uCi after 5 min in rat brain;n =4; type: ADME, tissue-based; conditions: in vivo
[8] = Radioactivity expressed as percent injected dose per gram after single intravenous injection of 50 uCi after 5 min in rat femur;n =4; type: ADME, tissue-based; conditions: in vivo
[9] = Radioactivity expressed as percent injected dose per gram after single intravenous injection of 50 uCi after 5 min in rat heart;n =4; type: ADME; conditions: in vivo
[10] = Radioactivity expressed as percent injected dose per gram after single intravenous injection of 50 uCi after 5 min in rat liver;n =4; type: ADME, tissue-based; conditions: in vivo
[11] = Radioactivity expressed as percent injected dose per gram after single intravenous injection of 50 uCi after 60 min in rat lung;n =4; type: ADME; conditions: in vivo, 1 h
[12] = Radioactivity expressed as percent injected dose per gram after single intravenous injection of 50 uCi after 5 min in rat kidney;n =4; type: ADME, tissue-based; conditions: in vivo
[13] = Radioactivity expressed as percent injected dose per gram after single intravenous injection of 50 uCi after 5 min in rat muscle;n =4; type: ADME, tissue-based, Muscle tissue; conditions: in vivo
[14] = Radioactivity expressed as percent injected dose per gram after single intravenous injection of 50 uCi after 5 min in rat spleen;n =4; type: ADME, tissue-based; conditions: in vivo
[15] = Radioactivity expressed as percent injected dose per gram after single intravenous injection of 50 uCi after 5 min in rat testis;n =4; type: ADME; conditions: in vivo
[16] = Radioactivity expressed as percent injected dose per gram after single intravenous injection of 50 uCi after 5 min in rat thymus;n =4; type: ADME; conditions: in vivo
[17] = Radioactivity expressed as percent injected dose per gram after single intravenous injection of 50 uCi after 60 min in rat thymus;n =4; type: ADME; conditions: in vivo, 1 h
[18] = Radioactivity expressed as percent injected dose per gram after single intravenous injection of 50 uCi after 5 min in rat adrenals;n =4; type: ADME, tissue-based, Adrenal gland; conditions: in vivo
[19] = Radioactivity expressed as percent injected dose per gram after single intravenous injection of 50 uCi after 5 min in rat pancreas;n =4; type: ADME; conditions: in vivo
[20] = Radioactivity expressed as percent injected dose per gram after single intravenous injection of 50 uCi after 5 min in rat pituitary;n =4; type: ADME; conditions: in vivo
[21] = Radioactivity expressed as percent injected dose per gram after single intravenous injection of 50 uCi after 5 min in rat brown fat;n =4; type: ADME; conditions: in vivo
[22] = Radioactivity expressed as percent injected dose per gram after single intravenous injection of 50 uCi after 60 min in rat adrenals;n =4; type: ADME, tissue-based, Adrenal gland; conditions: in vivo, 1 h
[23] = Radioactivity expressed as percent injected dose per gram after single intravenous injection of 50 uCi after 60 min in rat pancreas;n =4; type: ADME; conditions: in vivo, 1 h
[24] = Radioactivity expressed as percent injected dose per gram after single intravenous injection of 50 uCi after 60 min in rat pituitary;n =4; type: ADME; conditions: in vivo, 1 h
[25] = Radioactivity expressed as percent injected dose per gram after single intravenous injection of 50 uCi after 60 min in rat brown fat;n =4; type: ADME; conditions: in vivo, 1 h
[26] = Radioactivity expressed as percent injected dose per gram after single intravenous injection of 50 uCi after 60 min in rat blood;n =4; type: ADME; conditions: in vivo, 1 h
[27] = Radioactivity expressed as percent injected dose per gram after single intravenous injection of 50 uCi after 60 min in rat brain;n =4; type: ADME, tissue-based; conditions: in vivo, 1 h
[28] = Radioactivity expressed as percent injected dose per gram after single intravenous injection of 50 uCi after 60 min in rat femur;n =4; type: ADME, tissue-based; conditions: in vivo, 1 h
[29] = Radioactivity expressed as percent injected dose per gram after single intravenous injection of 50 uCi after 60 min in rat heart;n =4; type: ADME; conditions: in vivo, 1 h
[30] = Radioactivity expressed as percent injected dose per gram after single intravenous injection of 50 uCi after 60 min in rat liver;n =4; type: ADME, tissue-based; conditions: in vivo, 1 h
[31] = Radioactivity expressed as percent injected dose per gram after single intravenous injection of 50 uCi after 60 min in rat muscle;n =4; type: ADME, tissue-based, Muscle tissue; conditions: in vivo, 1 h
[32] = Radioactivity expressed as percent injected dose per gram after single intravenous injection of 50 uCi after 60 min in rat spleen;n =4; type: ADME, tissue-based; conditions: in vivo, 1 h
[33] = Radioactivity expressed as percent injected dose per gram after single intravenous injection of 50 uCi after 60 min in rat testis;n =4; type: ADME; conditions: in vivo, 1 h
[34] = Radioactivity expressed as percent injected dose per gram after single intravenous injection of 50 uCi after 5 min in rat hard glands;n =4; type: ADME; conditions: in vivo
[35] = Radioactivity expressed as percent injected dose per gram after single intravenous injection of 50 uCi after 60 min in rat hard glands;n =4; type: ADME; conditions: in vivo, 1 h
[36] = Activity distribution of compound in blocked (hydrocortisone) rat brain cortex after single iv injection of 0.9 mCi at 60 min after injection by ex vivo autoradiography; type: ADME, organism-based; conditions: 1 h
[37] = Activity distribution of compound in blocked (hydrocortisone) rat brain hippocampus after single iv injection of 0.9 mCi at 60 min after injection by ex vivo autoradiography; type: ADME, organism-based; conditions: 1 h
[38] = Activity distribution of compound in blocked (hydrocortisone) rat brain cerebellar nuclei after single iv injection of 0.9 mCi at 60 min after injection by ex vivo autoradiography; type: ADME, organism-based; conditions: 1 h
[39] = Activity distribution of compound in blocked (hydrocortisone) rat brain plexus choroideus after single iv injection of 0.9 mCi at 60 min after injection by ex vivo autoradiography; type: ADME, organism-based; conditions: 1 h
[40] = Activity distribution of compound in blocked (hydrocortisone) rat brain inferior coliculi after single iv injection of 0.9 mCi at 60 min after injection by ex vivo autoradiography; type: ADME, organism-based; conditions: 1 h

ID/g [1]: 0.87%
ID/g [2]: 1.36%
ID/g [3]: 0.82%
ID/g [4]: 0.6%
ID/g [5]: 0.31%
ID/g [6]: 0.06%
ID/g [7]: 0.26%
ID/g [8]: 0.34%
ID/g [9]: 0.63%
ID/g [10]: 1.3%
ID/g [11]: 0.66%
ID/g [12]: 0.66%
ID/g [13]: 0.31%
ID/g [14]: 0.4%
ID/g [15]: 0.18%
ID/g [16]: 0.37%
ID/g [17]: 0.4%
ID/g [18]: 1.23%
ID/g [19]: 0.85%
ID/g [20]: 0.52%
ID/g [21]: 0.8%
ID/g [22]: 1.96%
ID/g [23]: 0.85%
ID/g [24]: 0.82%
ID/g [25]: 0.91%
ID/g [26]: 0.08%
ID/g [27]: 0.25%
ID/g [28]: 0.22%
ID/g [29]: 0.66%
ID/g [30]: 2.15%
ID/g [31]: 0.32%
ID/g [32]: 0.44%
ID/g [33]: 0.07%
ID/g [34]: 1.09%
ID/g [35]: 0.55%
ID/g [36]: 0.7%
ID/g [37]: 0.59%
ID/g [38]: 0.94%
ID/g [39]: 0.83%
ID/g [40]: 0.89%
SMILES: C[C@]12Cc3cnn(-c4ccc(F)cc4)c3C=C1CCC1C2[C@@H](O)C[C@@]2(C)C1CC[C@]2(O)C(=O)C[18F] (stereo not given in full)
